The values below come from US11530244B2, “Cyclic polypeptides for PCSK9 inhibition” (priority 2018, dated 2022).

Assay [1] deals with human PCSK9 / human LDLR EGFa domain interaction (Homo sapiens (Human), UniProt Q8NBP7). The assay can be described thus: TR-FRET assay of inhibition of the PCSK9-LDLR protein-protein interaction. The assay is classed as binding. The conditions noted are these: TR-FRET, 20 nM human PCSK9, 20 nM human LDLR EGFa domain, 2 hours room temperature; read-out: IC50. The method, boiled down:
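Inhibition of PCSK9 binding to the LDLR EGFa domain, each protein at 20 nM, detected by TR-FRET using streptavidin and anti-His donor/acceptor labels (5 nM). Two-hour room-temperature incubation in calcium-containing HEPES buffer.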
A general note: In TR-FRET formats the signal depends on donor and acceptor labels being close together.

For the next assay, the target named is PCSK9 (Homo sapiens (Human), UniProt Q8NBP7). The assay is described as follows: PCSK9 Alexa FRET Standard assay (displacement of AlexaFluor647 tagged cyclic peptide Reagent A). In kind it is binding. The conditions noted are these: PCSK9 Alexa FRET Standard assay, 0.5 nM PCSK9, 20 nM AF cyclic peptide Reagent A; read-out: IC50. The method, boiled down:
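TR-FRET displacement: 0.5 nM biotinylated PCSK9 with 1.25 nM Strep-Eu and 20 nM AlexaFluor-tagged cyclic peptide (final) in 50 mM HEPES pH 7.4, 0.15 M NaCl, 5 mM CaCl2, 0.01% BSA, 0.01% P20, ≥2 h at room temperature. IC50 from sigmoidal fit, converted to Ki via peptide KD; falling Eu counts flagged false positives.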

pIC50: −log10 of the molar value. Starred links: 1 amine or outer side, 2 acyl side, 3 side chain; linkers in the order of their positions; H or OH if unused. Positions of bridges follow the written chain, without caps; N, C: chain ends. Non-standard residues stand in square brackets, D forms with d. Residues, ends and D or L forms follow the SMILES beside them. Triazole bridges read from a SMILES are 1,4-linked. Phe(4-COOH) = N[C@@H](Cc1ccc(C(=O)O)cc1)C(=O)O; Trp(5-F) = N[C@@H](Cc1c[nH]c2ccc(F)cc12)C(=O)O; Trp(6-F) = N[C@@H](Cc1c[nH]c2cc(F)ccc12)C(=O)O; mXylylene(5-F) = Fc1cc(C[*:1])cc(C[*:2])c1; Pro(cis-4-F) = O=C(O)[C@@H]1C[C@H](F)CN1; Lys(N3) = [N-]=[N+]=NCCCC[C@H](N)C(=O)O; TBMB = c1c(C[*:1])cc(C[*:3])cc1C[*:2]; mXylylene = c1cc(C[*:1])cc(C[*:2])c1; aThr = C[C@H](O)[C@H](N)C(=O)O; αMeP = C[C@@]1(C(=O)O)CCCN1; Hpra = C#CCC[C@H](N)C(=O)O; Ahx = NCCCCCC(=O)O; Mpa = O=C(O)CCS

Sequence of human PCSK9 / human LDLR EGFa domain interaction (Q8NBP7 153-692): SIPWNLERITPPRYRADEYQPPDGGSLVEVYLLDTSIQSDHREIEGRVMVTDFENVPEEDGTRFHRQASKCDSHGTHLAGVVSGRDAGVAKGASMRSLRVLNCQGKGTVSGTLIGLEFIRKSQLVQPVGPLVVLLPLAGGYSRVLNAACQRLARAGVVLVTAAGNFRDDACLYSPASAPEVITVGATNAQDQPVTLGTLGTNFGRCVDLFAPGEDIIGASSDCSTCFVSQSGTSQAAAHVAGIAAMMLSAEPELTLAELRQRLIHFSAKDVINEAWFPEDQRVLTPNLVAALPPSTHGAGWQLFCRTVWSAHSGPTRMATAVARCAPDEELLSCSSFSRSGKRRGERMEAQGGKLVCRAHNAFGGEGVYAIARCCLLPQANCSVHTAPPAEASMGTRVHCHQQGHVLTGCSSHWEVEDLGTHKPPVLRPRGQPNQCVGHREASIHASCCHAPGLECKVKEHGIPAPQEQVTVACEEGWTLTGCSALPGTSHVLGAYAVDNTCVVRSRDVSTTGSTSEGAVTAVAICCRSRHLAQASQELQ
Sequence of human PCSK9 / human LDLR EGFa domain interaction (Q8NBP7 31-152 partner): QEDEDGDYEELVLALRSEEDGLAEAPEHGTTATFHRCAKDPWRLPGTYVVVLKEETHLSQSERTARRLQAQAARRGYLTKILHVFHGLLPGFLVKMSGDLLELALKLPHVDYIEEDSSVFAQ
Sequence of PCSK9 (Q8NBP7 153-692): as the sequence (Q8NBP7 153-692) above

`COc1ccc(C[C@@H]2NC(=O)[C@@H]3CCCC(=O)N[C@H]4C[C@@H](C(=O)N3)N(C4)C(=O)[C@H](Cc3c[nH]c4ccc(F)cc34)NC(=O)[C@H](Cc3c[nH]c4ccc(F)cc34)NC(=O)[C@@H](C)NC(=O)[C@H](C)NCCSCc3ccc(cc3)CSCCNC(=O)[C@]3(C)CCCN3C2=O)cc1` [Compound 519]: the negative-log IC50 (pIC50) (in assay [1]; at PCSK9) was 4.92 to 6.00 each time.
In the case of `CC(=O)N[C@H]1CCCCn2cc(nn2)CC[C@@H](C(N)=O)NC(=O)[C@]2(C)CCCN2C(=O)[C@H](Cc2ccc(O)cc2)NC(=O)[C@H](Cc2cnc[nH]2)NC(=O)[C@H](CC(=O)O)NC(=O)[C@H](Cc2c[nH]c3ccc(F)cc23)NC(=O)[C@H](Cc2c[nH]c3ccc(F)cc23)NC(=O)CNC(=O)[C@H](C)NC1=O` [Compound 332] (Ac-[Lys(N3)]AG[Trp(5-F)][Trp(5-F)]DHY[αMeP][Hpra]-NH2; triazole 1-10), the pIC50 in assay [1] was 7.00 to 10.00; on PCSK9, 6.00 to 7.00.
Take `COc1ccc(C[C@@H]2NC(=O)[C@@H]3CC/C=C/CC[C@H](NC(=O)[C@H](Cc4c[nH]c5ccc(F)cc45)NC(=O)[C@H](Cc4c[nH]c5ccc(F)cc45)NC(=O)[C@@H](C)NC(=O)[C@H](CCCCN)NC(=O)CCSCc4cccc(c4)CSCCNC(=O)[C@]4(C)CCCN4C2=O)C(=O)N3)cc1` [Compound 493]: the pIC50 (in assay [1]; at PCSK9) was 4.92 to 6.00 throughout.
In the case of `COc1ccc(C[C@@H]2NC(=O)[C@H]([C@@H](C)O)NC(=O)[C@@H]3CCCN3C(=O)[C@H](Cc3c[nH]c4ccc(F)cc34)NC(=O)[C@H](Cc3c[nH]c4ccc(F)cc34)NC(=O)[C@@H](C)NC(=O)[C@H](CCCCN)NC(=O)CCSCc3cccc(c3)CSC[C@@H](C(N)=O)NC(=O)[C@]3(C)CCCN3C2=O)cc1` [Compound 054] ([Mpa]K[dA][Trp(5-F)][Trp(5-F)]PTY(Me)[αMeP]C-NH2; linker 1-10 via mXylylene), the pIC50 was 7.00 to 10.00 in assay [1] and 6.00 to 7.00 on PCSK9.
Regarding `C[C@H]1NC(=O)[C@H](CCCCN)NC(=O)CCSCc2cc(F)cc(c2)CSC[C@@H](C(N)=O)NC(=O)[C@]2(C)CCCN2C(=O)[C@H](Cc2ccc(O)cc2)NC(=O)[C@H]([C@@H](C)O)NC(=O)[C@@H]2CCCN2C(=O)[C@H](Cc2c[nH]c3ccc(F)cc23)NC(=O)[C@H](Cc2c[nH]c3ccc(F)cc23)NC1=O` [Compound 042] ([Mpa]K[dA][Trp(5-F)][Trp(5-F)]PTY[αMeP]C-NH2; linker 1-10 via mXylylene(5-F)), the pIC50 was 4.30 to 4.68 in assay [1] and 4.92 to 6.00 on PCSK9.
With `CCCCCCCCCCCCCCCC(=O)N[C@@H](CCC(=O)NCCOCCOCC(=O)NCCOCCOCC(=O)NCCCC[C@H](NC(=O)CCOCCOCCOCCOCCOCCOCCOCCOCCNC(=O)CCOCCOCCOCCOCCOCCOCCOCCOCCOCCOCCOCCOCCNC(=O)[C@@H]1CSCc2cccc(c2)CSCCC(=O)N[C@@H](C)C(=O)N[C@H](C)C(=O)N[C@@H](Cc2c[nH]c3ccc(F)cc23)C(=O)N[C@@H](Cc2c[nH]c3ccc(F)cc23)C(=O)[C@@H]2C[C@H](F)CN2C(=O)N[C@@H]([C@@H](C)O)C(=O)N[C@@H](Cc2ccc(O)cc2)C(=O)N2CCC[C@@]2(C)C(=O)N1)C(N)=O)C(=O)O` [Compound 133], the pIC50 (in assay [1]; on PCSK9) was 4.92 to 6.00 throughout.
Consider `Cc1cc2cc(c1)CSC[C@@H](C(N)=O)NC(=O)[C@]1(C)CCCN1C(=O)[C@H](Cc1ccc(O)cc1)NC(=O)[C@H](Cc1c[nH]cn1)NC(=O)[C@H](CC(=O)O)NC(=O)[C@H](Cc1c[nH]c3ccc(F)cc13)NC(=O)[C@H](Cc1c[nH]c3ccc(F)cc13)NC(=O)CNC(=O)[C@H](CCCCN)NC(=O)CCSC2` [Compound 357] ([Mpa]KG[Trp(5-F)][Trp(5-F)]DHY[αMeP]C-NH2; linker 1-10 via TBMB), for which the pIC50 (in assay [1]; at PCSK9) was 4.92 to 6.00 in each case.
`COc1ccc(C[C@@H]2NC(=O)[C@H]([C@H](C)O)NC(=O)[C@@H]3C[C@H](F)CN3C(=O)[C@H](Cc3c[nH]c4cc(F)ccc34)NC(=O)[C@H](Cc3c[nH]c4ccc(F)cc34)NC(=O)[C@@H](C)NC(=O)CCCCCNC(=O)c3ccc(cc3)C[C@@H](C(N)=O)NC(=O)[C@]3(C)CCCN3C2=O)cc1` [Compound 057] ([Ahx][dA][Trp(5-F)][Trp(6-F)][Pro(cis-4-F)][aThr]Y(Me)[αMeP][Phe(4-COOH)]-NH2; lactam N-9): the pIC50 is 4.92 to 6.00 in assay [1] and 4.30 to 4.68 at PCSK9.
The corresponding values for `C[C@@H](O)[C@@H]1NC(=O)[C@H](Cc2c[nH]c3ccc(F)cc23)NC(=O)[C@H](Cc2c[nH]c3ccc(F)cc23)NC(=O)CNC(=O)[C@H](CCCCN)NC(=O)CCSCc2cccc(c2)CSC[C@@H](C(N)=O)NC(=O)[C@@H]2CCCN2C(=O)[C@H](Cc2ccc(O)cc2)NC(=O)[C@H](Cc2c[nH]cn2)NC1=O` [Compound 224] ([Mpa]KG[Trp(5-F)][Trp(5-F)]THYPC-NH2; linker 1-10 via mXylylene) are 6.00 to 7.00 and 6.00 to 7.00.

By pIC50 is commonly meant the negative decadic logarithm of the IC50, by convention in mol/L.
